Laboratory results taken from EP0370436A2, “Novel benzothiazole and benzimidazole derivatives and antiulcer agent containing the same” (MEIJI SEIKA KAISHA LTD., priority 1988, dated 1990).
Marks after values point to notes of the source that are not given here.

Legend:
Type in all cases: in vivo
male Wister rats = experiment: Submerged restraint stress ulcer test; settings: Rattus norvegicus, oral, once, 30 mg/5 ml/kg body weight in 0.5% CMC, 1 h before 6 h water immersion restraint stress, read-out: Ulceration inhibitory ratio (%)
Experimental: A test compound as shown in Table 1 was suspended in 0.5% carboxymethylcellulose (CMC) and orally administered once to male Wister rats aged 11 weeks, which had been fasted for 18 hours, at a dose of 30 mg/5 ml/kg body weight. Similarly, 5 ml of 0.5% CMC was administered to a control group. One hour after the administration of the test compound, the rats were kept in restraining gages and immersed in water at 20 to 22°C up to the chest. Then, these animals were allowed to stand as such for six hours so as to load a stress. After pulling up from the water, each animal was sacrificed by vertebral cervical dislocation and the stomach was taken out. 5 ml of a 5% aqueous solution of formaldehyde was injected into the stomach and the stomach was immersed in said solution for 30 minutes for fixation. The specimen thus fixed was cut along the curvatura ventriculi major and the major axis of the formed ulcer was measured with a slide calipers (mm). The sum of the major axes of the total ulcers was made an ulcer index.
The ulceration inhibitory ratio was calculated according to the following equation: [formula]

male Donryu rats [1] = experiment: Aspirin-induced ulcer test; settings: oral, 30 mg/5 ml/kg body weight, 1 h before Aspirin 300 mg/5 ml/kg oral, sacrificed after four hours
Experimental: A test compound suspended in 0.5% carboxymethylcellulose orally administered to male Donryu rats, which had been fasted for 24 hours, at a dose of 30 mg/5 ml/kg body weight. Similarly, 5 ml of 0.5% CMC was administered to a control group. One hour after the administration of the test compound, Aspirin suspended in 0.5% CMC was orally administered to the rats at a dose of 300 mg/5 ml/kg body weight. After four hours, each animal was sacrificed and the stomach was taken out and treated with an aqueous solution of formaldehyde to determine the ulceration inhibitory ratio in the same manner as in the submerged restrain stress ulcer test.

male Donryu rats [2] = experiment: Histamine-induced ulcer test; settings: oral, once, 30 mg/5 ml/kg, 1 h before histamine dihydrochloride 200 mg/5 ml/kg i.p., sacrificed after five hours
Experimental: A compound obtained in Example 2 was suspended in 0.5% CMC and orally administered once to male Donryu rats, which had been fasted for 24 hours, at a dose of 30 mg/5 ml/kg. Similarly, 5 ml of 0.5% CMC was administered to a control group. One hour after the administration of the test compound, a solution of histamine dihydrochloride in a physiological saline solution was intraperitoneally administered to the rats at a dose of 200 mg/5 ml/kg. After five hours, each animal was sacrificed and the stomach was taken out and treated with an aqueous solution of formaldehyde to determine the ulceration inhibitory ratio in the same manner as in the above-described submerged restrain stress ulcer test. As a result, the ulceration inhibitory ratio was 50%.

male ICR mice = experiment: Acute toxicity; settings: oral, once, 1,000 mg/10 ml/kg body weight in 0.5% CMC; three male ICR mice; observed for seven days
Source text: A compound prepared in Example 2 was suspended in 0.5% CMC to give a predetermined concentration. Then, three male ICR mice aged 5 weeks were forced to orally take the above suspension once.

male Donryu rats [3] = experiment: Ethanol-induced ulcer test; settings: oral, 50 mg/5 ml/kg body weight, 1 h before 100% ethanol 5 ml/kg oral, sacrificed after one hour
Experimental: A compound obtained in Example 2 was suspended in 0.5% CMC and orally administered to male Donryu rats, which had been fasted for 48 hours and abstained from water for 24 hours, at a dose of […]. Similarly, 5 ml of 0.5% CMC was administered to a control group. One hour after the administration of the test compound, 100% ethanol was orally administered to the rats at a dose of 5 ml/kg body weight. After one hour, each animal was sacrificed and the stomach was taken out and treated in the above-mentioned manner. Then, erosion formation in the stomach was observed.
As a result, in a control group to which 0.5% CMC was given alone, erosion was formed at a frequency of almost 100%. In contrast thereto, in a test group to which the test compound was administered at a dose of 50 mg/5 ml/kg body weight, erosion formation was inhibited at a frequency of almost 100%. 5. Acute toxicity

Row | Compound | inhibition in vivo at 30 mg/kg (male Wister rats) [%] | other results
1 | [O-][S+](CCO)c1nc2cc(Cl)ccc2s1 (stereo not shown) [Example 9, 5-Chloro-2-[(2-hydroxyethyl)sulfinyl]benzothiazole] | 58.5 | 
2 | COc1ccc2[nH]c([S+]([O-])Cc3ncc(C)c(OC)c3C)nc2c1 (stereo not shown) [omeprazole, reference compound] | 99 | 
3 | CCOCCSc1nc2cc(Cl)ccc2s1 [Example 1, 5-Chloro-2-[(2-ethoxyethyl)thio]benzothiazole] | 57 | Ulceration inhibitory ratio (%) (male Donryu rats [1]): 21.3%
4 | CCOCC[S+]([O-])c1nc2cc(Cl)ccc2s1 (stereo not shown) [Example 2, 5-Chloro-2-[(2-ethoxyethyl)sulfinyl]benzothiazole] | 93 | ulceration inhibitory ratio (male Donryu rats [2]): 50%; acute toxicity (death of animals) (male ICR mice): no animal died; erosion formation was inhibited at a frequency of (male Donryu rats [3]): ~100%; Ulceration inhibitory ratio (%) (male Donryu rats [1]): 85* %
5 | CCOCC[S+]([O-])c1nc2ccccc2[nH]1 (stereo not shown) [Example 17, 2-[(2-Ethoxyethyl)sulfinyl]benzimidazole] | 73.6 | 
6 | [O-][S+](CCOCCOCCO)c1nc2cc(Cl)ccc2s1 (stereo not shown) [Example 11, 5-Chloro-2-[{2-(2-hydroxyethoxy)ethoxy}ethylsulfinyl]benzothiazole] | 63.5 | 
7 | CCOCC[S+]([O-])c1nc2ccccc2s1 (stereo not shown) [Example 4, 2-[(2-Ethoxyethyl)sulfinyl]benzothiazole] | 59.9 | 
8 | CCOCCS(=O)(=O)c1nc2cc(Cl)ccc2s1 [Example 3, 5-Chloro-2-[(2-ethoxyethyl)sulfonyl]benzothiazole] | 35.3 | 
